Counter-ions that a name gives are not always drawn.
Key:
[1] = Solubility characteristics of crystalline form; type: physicochemical; settings: a particular (crystalline) form
Text: The compound of Formula (II) is the 2-picoline salt of (2S,5R)-2-(1,3,4-oxadiazol-2-yl)-7-oxo-1,6-diazabicyclo[3.2.1]octan-6-yl hydrogen sulfate, i.e., 2-methylpyridin-1-ium (2S,5R)-2-(1,3,4-oxadiazol-2-yl)-7-oxo-1,6-diazabicyclo[3.2.1]octan-6-yl sulfate.

[2] = Solution stability of salt forms (purity change relative to starting purity)
Text: As part of the program to improve the process for the manufacture of the sodium salt of (2S,5R)-2-(1,3,4-oxadiazol-2-yl)-7-oxo-1,6-diazabicyclo[3.2.1]octan-6-yl hydrogen sulfate, a new intermediate capable of isolation and utility in the production was sought.
Additionally, the picoline salt precursor was examined for solution stability as an alternative hold point for the process.

[3] = Stability of isolated solid picoline salt at 2 weeks; type: physicochemical; settings: FIG. 23
Text: Also, the volume inefficiency, throughput bottlenecks, and impurity generation associated with the TBA to Na salt resin exchange process created the need for an improved step. Accordingly, there was a need for a stable solid that could be isolated, stored, and be used as needed to produce the desired sodium API in a reliable, scalable process. In screening different salt forms and examining the potential for crystallizations (as a means to isolate the salt forms), the TBA, pyridine, 5-ethyl-2-methylpyridine, and 2,6-lutidine forms of the API were not able to be successfully isolated in solid form.

Row | Molecule | solubility characteristics [1] | solution stability in dichloromethane solution ([2]; DCM, room temperature, compared with the TBA salt, FIGS. 22A and 22B) | stability in solution ([2]; in solution, early clinical productions) | stability of isolated solid [3] | solution stability in aqueous environments ([2]; aqueous solution, high dilution (~1 wt %), FIGS. 21A and 21B)
1 | O=C1N2C[C@@H](CC[C@H]2c2nnco2)N1OS(=O)(=O)O [Formula (II), 2-methylpyridin-1-ium (2S,5R)-2-(1,3,4-oxadiazol-2-yl)-7-oxo-1,6-diazabicyclo[3.2.1]octan-6-yl sulfate] | low solubility | significantly inferior to the TBA salt | unstable in solution | found to be stable | –
2 | tetrabutylammonium (2S,5R)-2-(1,3,4-oxadiazol-2-yl)-7-oxo-1,6-diazabicyclo[3.2.1]octan-6-yl sulfate [TBA salt, reference compound] | – | – | – | – | found to be a risk for long term scale-up

From US9120796B2, “B-lactamase inhibitor picoline salt” (Cubist Pharmaceuticals, Inc., priority 2013, dated 2015)
